Source: PubChem BioAssay (NCI)
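Compound exposure: 48 hours, 5 concentrations, 96-well plates. Abbreviation: GI50, concentration required for 50% inhibition of growth. TGI denotes the concentration required for complete inhibition of growth.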

Columns and labels:
Assay in all cases: DTP human tumour cell line panel, 48 h
786-0 renal = test system: 786-0 renal
A498 renal = test system: A498 renal
A549 NSCLC = test system: A549 NSCLC
ACHN renal = test system: ACHN renal
BT-549 breast = test system: BT-549 breast
CAKI-1 renal = test system: CAKI-1 renal
CCRF-CEM leukemia = test system: CCRF-CEM leukemia
COLO 205 colon = test system: COLO 205 colon
DU-145 prostate = test system: DU-145 prostate
EKVX NSCLC = test system: EKVX NSCLC
HCC-2998 colon = test system: HCC-2998 colon
HCT-116 colon = test system: HCT-116 colon
HCT-15 colon = test system: HCT-15 colon
HL-60(TB) leukemia = test system: HL-60(TB) leukemia
HOP-62 NSCLC = test system: HOP-62 NSCLC
HOP-92 NSCLC = test system: HOP-92 NSCLC
HS 578T breast = test system: HS 578T breast
HT29 colon = test system: HT29 colon
IGROV1 ovarian = test system: IGROV1 ovarian
K-562 leukemia = test system: K-562 leukemia
KM12 colon = test system: KM12 colon
LOX IMVI melanoma = test system: LOX IMVI melanoma
M14 melanoma = test system: M14 melanoma
MALME-3M melanoma = test system: MALME-3M melanoma
MCF7 breast = test system: MCF7 breast
MDA-MB-231 breast = test system: MDA-MB-231 breast
MDA-MB-435 = test system: MDA-MB-435
MOLT-4 leukemia = test system: MOLT-4 leukemia
NCI-H226 lung = test system: NCI-H226 lung
NCI-H23 lung = test system: NCI-H23 lung
NCI-H460 lung = test system: NCI-H460 lung
NCI-H522 lung = test system: NCI-H522 lung
NCI/ADR-RES ovarian = test system: NCI/ADR-RES ovarian
OVCAR-3 ovarian = test system: OVCAR-3 ovarian
OVCAR-4 ovarian = test system: OVCAR-4 ovarian
OVCAR-5 ovarian = test system: OVCAR-5 ovarian
OVCAR-8 ovarian = test system: OVCAR-8 ovarian
PC-3 prostate = test system: PC-3 prostate
RPMI-8226 leukemia = test system: RPMI-8226 leukemia
RXF 393 renal = test system: RXF 393 renal
SF-268 CNS = test system: SF-268 CNS
SF-295 CNS = test system: SF-295 CNS
SF-539 CNS = test system: SF-539 CNS
SK-MEL-2 melanoma = test system: SK-MEL-2 melanoma
SK-MEL-28 melanoma = test system: SK-MEL-28 melanoma
SK-MEL-5 melanoma = test system: SK-MEL-5 melanoma
SK-OV-3 ovarian = test system: SK-OV-3 ovarian
SN12C renal = test system: SN12C renal
SNB-19 CNS = test system: SNB-19 CNS
SNB-75 CNS = test system: SNB-75 CNS
SR leukemia = test system: SR leukemia
SW-620 colon = test system: SW-620 colon
T-47D breast = test system: T-47D breast
TK-10 renal = test system: TK-10 renal
U251 CNS = test system: U251 CNS
UACC-257 melanoma = test system: UACC-257 melanoma
UACC-62 melanoma = test system: UACC-62 melanoma
UO-31 renal = test system: UO-31 renal

SMILES: COc1cc2c3c(n(CCCN)c(=O)c2cc1OC)-c1ccc(N(C)C)cc1C3=O
- GI50 (786-0 renal): 5.29 µM
- TGI (786-0 renal): 11.8 µM
- GI50 (A498 renal): 21 µM
- TGI (A498 renal): 37.2 µM
- GI50 (A549 NSCLC): 18 µM
- TGI (A549 NSCLC): 52 µM
- GI50 (ACHN renal): 17.4 µM
- TGI (ACHN renal): 31.5 µM
- GI50 (BT-549 breast): 14.5 µM
- TGI (BT-549 breast): 28.8 µM
- GI50 (CAKI-1 renal): 22.7 µM
- TGI (CAKI-1 renal): 47.5 µM
- GI50 (CCRF-CEM leukemia): 1.98 µM
- TGI (CCRF-CEM leukemia): 5.16 µM
- GI50 (COLO 205 colon): 17.4 µM
- TGI (COLO 205 colon): 35.5 µM
- GI50 (DU-145 prostate): 2.38 µM
- TGI (DU-145 prostate): 6.6 µM
- GI50 (EKVX NSCLC): 16.7 µM
- TGI (EKVX NSCLC): 32 µM
- GI50 (HCC-2998 colon): 3.29 µM
- TGI (HCC-2998 colon): 7.68 µM
- GI50 (HCT-116 colon): 2.42 µM
- TGI (HCT-116 colon): 6.07 µM
- GI50 (HCT-15 colon): 13.9 µM
- TGI (HCT-15 colon): 27.1 µM
- GI50 (HL-60(TB) leukemia): 21.6 µM
- TGI (HL-60(TB) leukemia): 47.7 µM
- GI50 (HOP-62 NSCLC): 16.8 µM
- TGI (HOP-62 NSCLC): 31.9 µM
- GI50 (HOP-92 NSCLC): 6.8 µM
- TGI (HOP-92 NSCLC): 22.8 µM
- GI50 (HS 578T breast): 27.9 µM
- TGI (HS 578T breast): 61.5 µM
- GI50 (HT29 colon): 1.54 µM
- TGI (HT29 colon): 2.94 µM
- GI50 (IGROV1 ovarian): 14.8 µM
- TGI (IGROV1 ovarian): 47 µM
- GI50 (K-562 leukemia): 4.09 µM
- TGI (K-562 leukemia): 17.4 µM
- GI50 (KM12 colon): 2.34 µM
- TGI (KM12 colon): 4.85 µM
- GI50 (LOX IMVI melanoma): 2.05 µM
- TGI (LOX IMVI melanoma): 4.45 µM
- GI50 (M14 melanoma): 16.4 µM
- TGI (M14 melanoma): 32.6 µM
- GI50 (MALME-3M melanoma): 9.33 µM
- TGI (MALME-3M melanoma): 29.9 µM
- GI50 (MCF7 breast): 14.8 µM
- TGI (MCF7 breast): 36.7 µM
- GI50 (MDA-MB-231 breast): 11.9 µM
- TGI (MDA-MB-231 breast): 25.5 µM
- GI50 (MDA-MB-435): 22.6 µM
- TGI (MDA-MB-435): 46.3 µM
- GI50 (MOLT-4 leukemia): 7.01 µM
- TGI (MOLT-4 leukemia): 19.5 µM
- GI50 (NCI-H226 lung): 23.9 µM
- TGI (NCI-H226 lung): 49.5 µM
- GI50 (NCI-H23 lung): 16.6 µM
- TGI (NCI-H23 lung): 30.5 µM
- GI50 (NCI-H460 lung): 4.45 µM
- TGI (NCI-H460 lung): 26.1 µM
- GI50 (NCI-H522 lung): 17.3 µM
- TGI (NCI-H522 lung): 38.1 µM
- GI50 (NCI/ADR-RES ovarian): 13.9 µM
- TGI (NCI/ADR-RES ovarian): 43.2 µM
- GI50 (OVCAR-3 ovarian): 20.4 µM
- TGI (OVCAR-3 ovarian): 42.2 µM
- GI50 (OVCAR-4 ovarian): 17.5 µM
- TGI (OVCAR-4 ovarian): 33.8 µM
- GI50 (OVCAR-5 ovarian): 17 µM
- TGI (OVCAR-5 ovarian): 31.4 µM
- GI50 (OVCAR-8 ovarian): 7.22 µM
- TGI (OVCAR-8 ovarian): 33.7 µM
- GI50 (PC-3 prostate): 1.69 µM
- TGI (PC-3 prostate): 3.14 µM
- GI50 (RPMI-8226 leukemia): 2 µM
- TGI (RPMI-8226 leukemia): 4.68 µM
- GI50 (RXF 393 renal): 6.53 µM
- TGI (RXF 393 renal): 14.8 µM
- GI50 (SF-268 CNS): 16.1 µM
- TGI (SF-268 CNS): 46.1 µM
- GI50 (SF-295 CNS): 17.6 µM
- TGI (SF-295 CNS): 37.9 µM
- GI50 (SF-539 CNS): 1.92 µM
- TGI (SF-539 CNS): 3.66 µM
- GI50 (SK-MEL-2 melanoma): 19.6 µM
- TGI (SK-MEL-2 melanoma): 38.1 µM
- GI50 (SK-MEL-28 melanoma): 12.3 µM
- TGI (SK-MEL-28 melanoma): 27.6 µM
- GI50 (SK-MEL-5 melanoma): 6.4 µM
- TGI (SK-MEL-5 melanoma): 13.7 µM
- GI50 (SK-OV-3 ovarian): 21 µM
- TGI (SK-OV-3 ovarian): 42.7 µM
- GI50 (SN12C renal): 16.9 µM
- TGI (SN12C renal): 32 µM
- GI50 (SNB-19 CNS): 16.9 µM
- TGI (SNB-19 CNS): 33.7 µM
- GI50 (SNB-75 CNS): 22.5 µM
- TGI (SNB-75 CNS): 46 µM
- GI50 (SR leukemia): 18.7 µM
- TGI (SR leukemia): 74.5 µM
- GI50 (SW-620 colon): 1.95 µM
- TGI (SW-620 colon): 3.76 µM
- GI50 (T-47D breast): 20 µM
- TGI (T-47D breast): 41 µM
- GI50 (TK-10 renal): 18.5 µM
- TGI (TK-10 renal): 37.2 µM
- GI50 (U251 CNS): 16.5 µM
- TGI (U251 CNS): 31.1 µM
- GI50 (UACC-257 melanoma): 23.5 µM
- TGI (UACC-257 melanoma): 48.3 µM
- GI50 (UACC-62 melanoma): 21.6 µM
- TGI (UACC-62 melanoma): 42.2 µM
- GI50 (UO-31 renal): 16.9 µM
- TGI (UO-31 renal): 36.1 µM
